Patent US9999622B2, “Pyrazolothiazole compound and medicine comprising same” (NIPPON SHINYAKU CO., LTD., priority 2014, dated 2018)

Assays:
Type in all cases: biochemical
[1] = target: T1, JAK1 (Homo sapiens, UniProt P23458); assay: JAK tyrosine kinase inhibitory activity in the presence of 1 mM ATP (ELISA), JAK1
T1 construct: purchased Carna Biosciences, Inc
How it was run: (§1)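 Kinase reactions ran on streptavidin-coated plates in 15 mM Tris-HCl pH 7.5, 0.01% Tween-20, 1 mM DTT, 30 °C for 1 h. Enzyme was prediluted to 7.5 nM (JAK1) or 0.75 nM (JAK2, JAK3) before addition. Phosphotyrosine was detected with HRP anti-pTyr antibody and TMB at A450.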

[2] = target: T2, JAK2 (Homo sapiens, UniProt O60674); assay: JAK tyrosine kinase inhibitory activity in the presence of 1 mM ATP (ELISA), JAK2
T2 construct: purchased Carna Biosciences, Inc
T2 sequence (O60674 whole entry): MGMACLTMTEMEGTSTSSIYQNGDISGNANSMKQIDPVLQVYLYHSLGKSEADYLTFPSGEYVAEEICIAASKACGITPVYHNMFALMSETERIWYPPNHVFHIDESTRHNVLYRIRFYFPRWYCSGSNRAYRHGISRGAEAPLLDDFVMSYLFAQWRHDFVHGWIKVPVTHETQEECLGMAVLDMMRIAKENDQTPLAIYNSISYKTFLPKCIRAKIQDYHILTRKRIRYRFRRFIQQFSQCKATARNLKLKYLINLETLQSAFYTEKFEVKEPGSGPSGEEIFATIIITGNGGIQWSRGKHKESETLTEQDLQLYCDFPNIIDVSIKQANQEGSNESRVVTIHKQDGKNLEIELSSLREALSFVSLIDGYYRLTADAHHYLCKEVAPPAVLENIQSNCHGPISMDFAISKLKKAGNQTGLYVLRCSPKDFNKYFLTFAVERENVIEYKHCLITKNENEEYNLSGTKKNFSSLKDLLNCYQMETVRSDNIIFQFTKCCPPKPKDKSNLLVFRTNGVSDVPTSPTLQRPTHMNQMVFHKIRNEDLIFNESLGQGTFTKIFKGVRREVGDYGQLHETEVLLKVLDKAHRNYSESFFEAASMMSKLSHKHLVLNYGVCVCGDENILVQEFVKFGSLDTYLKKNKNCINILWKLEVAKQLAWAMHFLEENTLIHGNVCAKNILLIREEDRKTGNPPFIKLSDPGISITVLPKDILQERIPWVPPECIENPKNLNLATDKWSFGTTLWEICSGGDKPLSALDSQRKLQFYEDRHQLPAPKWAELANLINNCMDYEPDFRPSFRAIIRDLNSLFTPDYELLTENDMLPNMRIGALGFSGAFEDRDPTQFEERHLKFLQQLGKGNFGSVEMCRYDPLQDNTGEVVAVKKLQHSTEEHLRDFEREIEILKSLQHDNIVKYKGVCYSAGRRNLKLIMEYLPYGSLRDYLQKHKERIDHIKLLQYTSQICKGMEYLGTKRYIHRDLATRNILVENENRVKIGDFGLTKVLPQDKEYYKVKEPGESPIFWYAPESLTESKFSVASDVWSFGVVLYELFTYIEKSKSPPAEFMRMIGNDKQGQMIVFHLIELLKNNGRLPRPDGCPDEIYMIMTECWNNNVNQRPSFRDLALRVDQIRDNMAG
How it was run: as §1

[3] = target: T3, JAK3 (Homo sapiens, UniProt P52333); assay: JAK tyrosine kinase inhibitory activity in the presence of 1 mM ATP (ELISA), JAK3
T3 construct: purchased Carna Biosciences, Inc
T3 sequence (P52333 1-1124): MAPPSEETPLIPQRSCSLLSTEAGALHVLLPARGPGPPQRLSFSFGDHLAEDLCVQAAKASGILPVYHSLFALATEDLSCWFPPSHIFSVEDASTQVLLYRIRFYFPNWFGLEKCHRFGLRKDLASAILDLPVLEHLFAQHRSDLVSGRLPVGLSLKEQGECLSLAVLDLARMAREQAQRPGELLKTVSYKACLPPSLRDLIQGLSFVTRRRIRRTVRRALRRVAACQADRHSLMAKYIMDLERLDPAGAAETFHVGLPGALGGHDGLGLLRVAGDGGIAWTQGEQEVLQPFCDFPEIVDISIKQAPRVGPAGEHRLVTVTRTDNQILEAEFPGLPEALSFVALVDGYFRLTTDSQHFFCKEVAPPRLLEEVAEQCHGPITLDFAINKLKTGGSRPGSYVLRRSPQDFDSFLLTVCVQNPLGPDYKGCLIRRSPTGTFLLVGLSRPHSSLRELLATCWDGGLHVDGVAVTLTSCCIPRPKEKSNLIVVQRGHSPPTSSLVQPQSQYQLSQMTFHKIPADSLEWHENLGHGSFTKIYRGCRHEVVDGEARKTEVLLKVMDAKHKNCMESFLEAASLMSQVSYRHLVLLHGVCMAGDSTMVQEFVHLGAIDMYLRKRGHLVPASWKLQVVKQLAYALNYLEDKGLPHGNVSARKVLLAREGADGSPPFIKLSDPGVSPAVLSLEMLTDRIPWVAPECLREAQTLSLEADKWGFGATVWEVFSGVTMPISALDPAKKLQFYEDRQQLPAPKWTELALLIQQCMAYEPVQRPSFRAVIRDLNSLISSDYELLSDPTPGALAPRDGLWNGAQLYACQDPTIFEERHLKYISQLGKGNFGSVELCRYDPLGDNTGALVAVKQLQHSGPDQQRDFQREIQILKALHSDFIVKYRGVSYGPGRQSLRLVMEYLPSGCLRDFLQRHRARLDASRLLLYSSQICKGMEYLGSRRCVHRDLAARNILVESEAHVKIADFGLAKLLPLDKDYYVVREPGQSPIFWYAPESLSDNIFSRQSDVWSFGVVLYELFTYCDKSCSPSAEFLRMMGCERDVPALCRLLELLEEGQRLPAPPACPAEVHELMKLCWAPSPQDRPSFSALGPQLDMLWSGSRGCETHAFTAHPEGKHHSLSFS
How it was run: as §1

T1 sequence (P23458 whole entry): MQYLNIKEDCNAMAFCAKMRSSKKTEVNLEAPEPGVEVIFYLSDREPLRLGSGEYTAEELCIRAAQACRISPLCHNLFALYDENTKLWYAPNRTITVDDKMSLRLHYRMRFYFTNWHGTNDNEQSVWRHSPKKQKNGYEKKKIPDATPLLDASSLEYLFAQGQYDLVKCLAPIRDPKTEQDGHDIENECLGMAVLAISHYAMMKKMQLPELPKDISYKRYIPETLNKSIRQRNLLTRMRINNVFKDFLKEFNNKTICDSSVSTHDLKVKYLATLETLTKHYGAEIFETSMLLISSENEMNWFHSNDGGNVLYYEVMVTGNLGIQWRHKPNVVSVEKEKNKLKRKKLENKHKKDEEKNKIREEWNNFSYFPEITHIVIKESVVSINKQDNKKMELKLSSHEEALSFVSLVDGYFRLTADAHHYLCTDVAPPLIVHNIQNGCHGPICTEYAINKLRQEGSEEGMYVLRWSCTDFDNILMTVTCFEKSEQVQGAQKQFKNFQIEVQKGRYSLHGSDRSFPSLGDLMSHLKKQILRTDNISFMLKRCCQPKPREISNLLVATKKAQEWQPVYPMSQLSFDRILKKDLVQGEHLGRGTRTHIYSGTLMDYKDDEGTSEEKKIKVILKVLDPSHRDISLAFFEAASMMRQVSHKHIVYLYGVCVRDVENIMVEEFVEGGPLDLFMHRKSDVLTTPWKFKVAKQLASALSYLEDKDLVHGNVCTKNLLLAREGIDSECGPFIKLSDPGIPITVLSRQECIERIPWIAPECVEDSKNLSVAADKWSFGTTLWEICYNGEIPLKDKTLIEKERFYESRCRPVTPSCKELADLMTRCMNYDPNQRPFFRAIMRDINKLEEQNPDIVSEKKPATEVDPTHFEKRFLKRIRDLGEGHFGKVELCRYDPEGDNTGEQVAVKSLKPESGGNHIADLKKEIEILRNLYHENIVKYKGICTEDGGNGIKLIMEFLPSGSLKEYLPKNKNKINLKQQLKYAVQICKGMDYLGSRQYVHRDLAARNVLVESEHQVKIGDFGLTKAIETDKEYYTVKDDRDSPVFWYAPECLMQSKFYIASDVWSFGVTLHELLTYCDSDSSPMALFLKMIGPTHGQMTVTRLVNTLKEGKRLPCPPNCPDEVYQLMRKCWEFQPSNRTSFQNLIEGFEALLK

Structure (SMILES)	IC50 [1]	IC50 [2]	IC50 [3]
COC(=O)NC1CCN(C(=O)c2cc(N[C@H](C)C3CCCCC3)nc(-c3cnn4ccsc34)n2)CC1 [Example 161, Methyl 1-[6-[(1R)-1-cyclohexylethyl]amino-2-(pyrazolo[5,1-b][1,3]thiazol-7-yl)pyrimidine-4-carbonyl]piperidin-4-ylcarbamate]	47 nM	> 10000 nM	> 10000 nM
COC(=O)NC1CCN(C(=O)c2cc(NC(C)c3ccncc3)nc(-c3cnn4ccsc34)n2)CC1 (stereo not drawn) [Example 162, Methyl 1-[2-(pyrazolo[5,1 b][1,3]thiazol-7-yl)-6-[1-(pyridin-4-yl)ethyl]aminopyrimidine-4-carbonyl]piperidin-4-ylcarbamate]	1100 nM	> 10000 nM	> 10000 nM
COC(=O)NC1CCN(C(=O)c2cc(NCCC3CC3)nc(-c3cnn4ccsc34)n2)CC1 [Example 163, Methyl (1-6-[(2-cyclopropylethyl)amino]-2-(pyrazolo[5,1-b][1,3]thiazol-7-yl)pyrimidine-4-carbonylpiperidin-4-yl)carbamate]	450 nM	> 10000 nM	5600 nM
COC(=O)NC1CCN(C(=O)c2cc(OCC3CN(C(=O)OC(C)(C)C)C3)nc(-c3cnn4ccsc34)n2)CC1 [Example 164, Tert-butyl 3-([6-4-[(methoxycarbonyl)amino]piperidine-1-carbonyl-2-(pyrazolo[5,1-b][1,3]thiazol-7-yl)pyrimidin-4-yl]oxymethyl)azetidine-1-carboxylate]	2600 nM	> 10000 nM	> 10000 nM
C[C@H](Nc1cc(C(=O)N2CCC(NC(=O)C3CCC3)CC2)nc(-c2cnn3ccsc23)n1)C1CC1 [Example 165, N-1-[6-[(1S)-1-cyclopropylethyl]amino-2-(pyrazolo[5,1-b][1,3]thiazol-7-yl)pyrimidine-4-carbonyl]piperidin-4-yl cyclobutanecarboxamide]	40 nM	> 10000 nM	1200 nM
C[C@H](Nc1cc(C(=O)N2CCC(NC(=O)C3CCCCC3)CC2)nc(-c2cnn3ccsc23)n1)C1CC1 [Example 167, N-1-[6-[(1S)-1-cyclopropylethyl]amino-2-(pyrazolo[5,1-b][1,3]thiazol-7-yl)pyrimidine-4-carbonyl]piperidin-4-ylcyclohexanecarboxamide]	230 nM	9500 nM	1100 nM
O=C(NC1CCN(C(=O)c2cc(N[C@H]3CC[C@H](O)CC3)nc(-c3cnn4ccsc34)n2)CC1)C1CC1 [Example 168, N-(1-6-[(trans-4-hydroxycyclohexyl)amino]-2-(pyrazolo[5,1-b][1,3]thiazol-7-yl)pyrimidine-4-carbonylpiperidin-4-yl)cyclopropanecarboxamide]	1200 nM	> 10000 nM	3200 nM
C[C@@H](Nc1cc(C(=O)N2CCC(NC(=O)C3CC3)CC2)nc(-c2cnn3ccsc23)n1)C1CCCCC1 [Example 169, N-1-[6-[(1R)-1-cyclohexylethyl]amino-2-(pyrazolo[5,1-b][1,3]thiazol-7-yl)pyrimidine-4-carbonyl]piperidin-4-ylcyclopropanecarboxamide]	160 nM	6400 nM	2100 nM
CC(Nc1cc(C(=O)N2CCC(NC(=O)C3CC3)CC2)nc(-c2cnn3ccsc23)n1)c1ccncc1 (stereo not drawn) [Example 170, N-1-[2-(pyrazolo[5,1-b][1,3]thiazol 7 yl) 6 [1-(pyridin-4-yl)ethyl]aminopyrimidine-4-carbonyl]piperidin-4-ylcyclopropanecarboxamide]	1600 nM	> 10000 nM	> 10000 nM
CC(C)(C)OC(=O)N1CCC(Nc2cc(C(=O)N3CCC(NC(=O)C4CC4)CC3)nc(-c3cnn4ccsc34)n2)CC1 [Example 171, Tert-butyl 4-[6-4-[(cyclopropanecarbonyl)amino]piperidine-1-carbonyl-2-(pyrazolo[5,1-b][1,3]thiazol-7-yl)pyrimidin-4-yl]aminopiperidine-1-carboxylate]	850 nM	> 10000 nM	> 10000 nM
O=C(NC1CCN(C(=O)c2cc(NC3CCOCC3)nc(-c3cnn4ccsc34)n2)CC1)C1CC1 [Example 172, N-(1-6-[(oxan-4-yl)amino]-2-(pyrazolo[5,1-b][1,3]thiazol-7-yl)pyrimidine-4-carbonylpiperidin-4-yl)cyclopropanecarboxamide]	320 nM	> 10000 nM	> 10000 nM
O=C(NC1CCN(C(=O)c2cc(NC3COC3)nc(-c3cnn4ccsc34)n2)CC1)C1CC1 [Example 173, N-(1-6-[(oxetan-3-yl)amino]-2-(pyrazolo[5,1-b][1,3]thiazol-7-yl)pyrimidine-4-carbonylpiperidin-4-yl)cyclopropanecarboxamide]	3400 nM	> 10000 nM	> 10000 nM
COC(=O)NC1CCN(C(=O)c2cc(NCC(C)(C)CC3CC3)nc(-c3cnn4ccsc34)n2)CC1 [Example 174, Methyl (1-6-[(3-cyclopropyl-2,2-dimethylpropyl)amino]-2-(pyrazolo[5,1-b][1,3]thiazol-7-yl)pyrimidine-4-carbonylpiperidin-4-yl)carbamate]	300 nM	> 10000 nM	5600 nM
COC(=O)NC1CCN(C(=O)c2cc(NCC3CCN(S(C)(=O)=O)CC3)nc(-c3cnn4ccsc34)n2)CC1 [Example 175, Methyl 1-[6-([1-(methanesulfonyl)piperidin-4-yl]methylamino)-2-(pyrazolo[5,1-b][1,3]thiazol-7-yl)pyrimidine-4-carbonyl]piperidin 4-ylcarbamate]	96 nM	> 10000 nM	> 10000 nM
O=C(NC1CCN(C(=O)c2cc(NC3CC4CCC3C4)nc(-c3cnn4ccsc34)n2)CC1)C1CC1 [Example 176, N-1-[6-[(1R)-bicyclo[2.2.1]heptan-2-yl]amino-2-(pyrazolo[5,1-b][1,3]thiazol-7-yl)pyrimidine-4-carbonyl]piperidin-4-ylcyclopropanecarboxamide]	78 nM	4400 nM	4600 nM
COC(=O)NC1CCN(C(=O)c2cc(N[C@H]3CC[C@@H](O)CC3)nc(-c3cnn4ccsc34)n2)CC1 [Example 177, Methyl (1-6-[(cis-4-hydroxycyclohexyl)amino]-2-(pyrazolo[5,1-b][1,3]thiazol-7-yl)pyrimidine-4-carbonylpiperidin-4-yl)carbamate]	300 nM	> 10000 nM	> 10000 nM
COC(=O)NC1CCN(C(=O)c2cc(N[C@H]3CC[C@H](O)CC3)nc(-c3cnn4ccsc34)n2)CC1 [Example 178, Methyl (1-6-[(trans-4-hydroxycyclohexyl)amino]-2-(pyrazolo[5,1-b][1,3]thiazol-7-yl)pyrimidine-4-carbonylpiperidin-4-yl)carbamate]	510 nM	> 10000 nM	9500 nM
COC(=O)NC1CCN(C(=O)c2cc(NC3CCCC3)nc(-c3cnn4ccsc34)n2)CC1 [Example 179, Methyl 1-[6-(cyclopentylamino)-2-(pyrazolo[5,1-b][1,3]thiazol-7-yl)pyrimidine-4-carbonyl]piperidin-4-ylcarbamate]	320 nM	> 10000 nM	> 10000 nM
COC(=O)NC1CCN(C(=O)c2cc(NC3CCCCC3)nc(-c3cnn4ccsc34)n2)CC1 [Example 180, Methyl 1-[6-(cyclohexylamino)-2-(pyrazolo[5,1-b][1,3]thiazol-7-yl)pyrimidine-4-carbonyl]piperidin-4-ylcarbamate]	560 nM	> 10000 nM	> 10000 nM
